According to patent publication US9650616B2, “Methods for increasing grain yield” (University of Florida Research Foundation, Inc., priority 2014, dated 2017):
Residue numbers refer to the chain shown, from its start. Where two headings read alike, the source gives them in different places.

Experiments:
[1] = target: T1, maize endosperm AGPase, large subunit variant D161G (numbering of SEQ ID NO: 20) (Zea mays, UniProt P55241+Q84PF5, D161G); test: Apparent kinetic constants with 3-PGA, 37° C., D161G; format: biochemical
T1 sequence (P55241 46-516 D161G): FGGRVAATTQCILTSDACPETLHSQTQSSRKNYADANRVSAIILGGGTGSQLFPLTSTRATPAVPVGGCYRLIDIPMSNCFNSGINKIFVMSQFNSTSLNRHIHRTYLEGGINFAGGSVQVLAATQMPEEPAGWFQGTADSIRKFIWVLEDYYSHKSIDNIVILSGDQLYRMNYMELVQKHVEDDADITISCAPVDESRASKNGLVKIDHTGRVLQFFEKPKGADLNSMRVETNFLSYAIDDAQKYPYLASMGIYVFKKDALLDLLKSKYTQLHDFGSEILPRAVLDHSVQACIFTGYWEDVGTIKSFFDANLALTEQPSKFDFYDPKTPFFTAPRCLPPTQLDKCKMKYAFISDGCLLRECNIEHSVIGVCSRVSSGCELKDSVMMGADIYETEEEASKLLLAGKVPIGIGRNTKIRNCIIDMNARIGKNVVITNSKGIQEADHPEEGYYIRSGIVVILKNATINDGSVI
T1 sequence (Q84PF5 1-474): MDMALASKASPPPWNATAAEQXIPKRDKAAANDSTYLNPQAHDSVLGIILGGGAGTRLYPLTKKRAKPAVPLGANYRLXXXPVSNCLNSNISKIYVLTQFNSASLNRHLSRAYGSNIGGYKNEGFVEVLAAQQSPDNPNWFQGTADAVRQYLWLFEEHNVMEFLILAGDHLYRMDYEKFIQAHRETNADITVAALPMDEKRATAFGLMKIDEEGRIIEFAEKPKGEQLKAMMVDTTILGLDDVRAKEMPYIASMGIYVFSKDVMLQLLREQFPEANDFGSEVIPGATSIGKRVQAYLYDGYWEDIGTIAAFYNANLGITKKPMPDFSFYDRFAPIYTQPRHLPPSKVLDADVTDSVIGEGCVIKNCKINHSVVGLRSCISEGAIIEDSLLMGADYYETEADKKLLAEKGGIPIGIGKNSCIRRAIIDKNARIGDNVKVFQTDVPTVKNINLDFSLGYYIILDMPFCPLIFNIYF
Source text: The small and large subunit plasmids of maize endosperm AGPase (pMONcBt2 and pMONcSh2, respectively) (Giroux et al., 1996) were expressed in E. coli AC70R1-504 cells (Iglesias et al., 1993) as previously described (Boehlein et al., 2008).
(§1) An endpoint assay was used to determine the rate of the AGPase reaction by coupling the formation of PPi to a decrease in NADH concentration (Boehlein et al., 2008). […] The Michaelis constants (Km) were obtained by varying one substrate in the presence of saturating concentrations of the second substrate. The activation constants were obtained by varying the activator at fixed levels of both substrates. All reactions were performed at 37° C. and mixes were prewarmed before starting the reaction with enzyme. […] The absorbance at 340 nm was monitored after 30 min and the amount of PPi produced was determined from a standard curve using PPi in complete reaction mixtures lacking AGPase. Blank samples contained complete reaction mixtures without enzyme and the change in absorbance between the blank and the reaction was used to calculate the amount of PPi produced. […]
(§2) The apparent Michaelis constant and maximum velocity of each reaction was calculated from a V vs. S plots using nonlinear regression analysis and the following equation, v=VmaxS/(Km+S), where v is the measured velocity, Vmax is the maximum velocity, S is the substrate concentration. […]

[2] = target: T2, maize endosperm AGPase variant T142F (Zea mays, UniProt P55241+Q84PF5, T142F); conditions: cited from earlier work
T2 construct: data of Boehlein et al., 2013
T2 sequence (P55241 46-516 T142F): T1 sequence (P55241 46-516 D161G) with T97F, G116D
T2 sequence (Q84PF5 1-474): T1 sequence (Q84PF5 1-474)

[3] = target: T2, maize endosperm AGPase variant T142F; test: Apparent kinetic constants with 3-PGA, 37° C., T142F; format: biochemical; conditions: read-out: ATP Km, with 3-PGA, 37° C.
Procedure: as §1, §2
Each mutant, comprising 1, 2, 3 or 4 changes, was grown in a large scale culture, expressed and purified according to standard procedures (Boehlein et al., 2005). […] Next, the activation constant, Ka, was determined for each of the mutant enzymes. […]

Nc1ncnc2c1ncn2[C@@H]1O[C@H](COP(=O)(O)OP(=O)(O)OP(=O)(O)O)[C@@H](O)[C@H]1O [ATP]
Km ([1]; read-out: ATP Km, with 3-PGA, 37° C.): 44 µM
Km ([1]; read-out: Km for ATP, in the presence of 3-PGA): 40 µM
kcat ([2]; absence of 3-PGA): 53.8 s⁻¹
Km ([2]; read-out: ATP Km, absence of 3-PGA): 1730 µM
Kd ([2]; read-out: Kia (dissociation constant for the E-ATP complex), absence of 3-PGA): 1500 µM
Km [3]: 200 µM
